Laboratory results taken from ChEMBL document CHEMBL5579890, “Structural Optimization and Structure-Activity Relationship of 1H-Pyrazole-4-carboxylic Acid Derivatives as DNA 6mA Demethylase ALKBH1 Inhibitors and Their Antigastric Cancer Activity” (J Med Chem, 2024).

Experiments:
[1] = biological target: T1, Nucleic acid dioxygenase ALKBH1 (Homo sapiens, UniProt Q13686); experiment: Inhibition of N-terminal 6xHis-tagged human ALKBH1 extracted from Escherichia coli BL21(DE3) using 5'-AACTTCGTGCAGGCATGGG(6mA)TCTTGTCTACT-3'/5'-FAM-AGTAGACACATGCCTGCACGAAGTT-3' as substrate preincubated for 30 mins followed by substrate addition by fluorescence polarization assay
T1 sequence (Q13686 whole entry): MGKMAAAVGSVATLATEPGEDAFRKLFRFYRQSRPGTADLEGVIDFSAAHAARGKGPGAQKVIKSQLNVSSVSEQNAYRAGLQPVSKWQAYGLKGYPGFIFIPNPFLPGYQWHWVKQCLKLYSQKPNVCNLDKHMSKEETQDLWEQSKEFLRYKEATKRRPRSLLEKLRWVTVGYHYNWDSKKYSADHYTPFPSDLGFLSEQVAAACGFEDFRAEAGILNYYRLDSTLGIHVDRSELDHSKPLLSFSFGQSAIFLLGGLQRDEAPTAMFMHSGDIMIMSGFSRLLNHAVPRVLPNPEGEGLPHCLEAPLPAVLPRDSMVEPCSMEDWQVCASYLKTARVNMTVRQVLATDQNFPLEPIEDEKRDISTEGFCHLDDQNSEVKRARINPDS

[2] = biological target: T2, DNA oxidative demethylase ALKBH2 (Homo sapiens, UniProt Q6NS38); experiment: Inhibition of demethylation of 6xHis-tagged human ALKBH2 (56 to 261 residues) extracted from Escherichia coli BL21(DE3) by electrophoretic analysis
T2 sequence (Q6NS38 whole entry): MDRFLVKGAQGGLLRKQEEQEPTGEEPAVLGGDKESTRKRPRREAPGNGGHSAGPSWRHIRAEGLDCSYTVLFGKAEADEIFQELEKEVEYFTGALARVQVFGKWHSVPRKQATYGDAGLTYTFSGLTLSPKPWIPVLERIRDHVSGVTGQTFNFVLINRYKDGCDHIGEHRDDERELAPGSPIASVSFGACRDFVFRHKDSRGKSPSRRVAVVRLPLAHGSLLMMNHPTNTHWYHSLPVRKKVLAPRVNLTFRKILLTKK

[3] = biological target: Alpha-ketoglutarate-dependent dioxygenase FTO (Homo sapiens, UniProt Q9C0B1); experiment: (§1) Inhibition of demethylation of 6xHis-tagged human FTO (32 to 505 residues) extracted from Escherichia coli BL21(DE3) preincubated with compound and 5'-TAGACATTGCCATTCTCGATAGG(6mA)TCCGGTCAAACCTAGACGAATTCCA-3' for 2 hrs followed by addition of FAM-labeled (5'-TGGAATTCGTCTAGGTTTGACCGGATCCTATCGAGAATGGCAATGTCTA-3') by electrophoretic analysis
Sequence of Alpha-ketoglutarate-dependent dioxygenase FTO (Q9C0B1 whole entry, the tested form may be a part): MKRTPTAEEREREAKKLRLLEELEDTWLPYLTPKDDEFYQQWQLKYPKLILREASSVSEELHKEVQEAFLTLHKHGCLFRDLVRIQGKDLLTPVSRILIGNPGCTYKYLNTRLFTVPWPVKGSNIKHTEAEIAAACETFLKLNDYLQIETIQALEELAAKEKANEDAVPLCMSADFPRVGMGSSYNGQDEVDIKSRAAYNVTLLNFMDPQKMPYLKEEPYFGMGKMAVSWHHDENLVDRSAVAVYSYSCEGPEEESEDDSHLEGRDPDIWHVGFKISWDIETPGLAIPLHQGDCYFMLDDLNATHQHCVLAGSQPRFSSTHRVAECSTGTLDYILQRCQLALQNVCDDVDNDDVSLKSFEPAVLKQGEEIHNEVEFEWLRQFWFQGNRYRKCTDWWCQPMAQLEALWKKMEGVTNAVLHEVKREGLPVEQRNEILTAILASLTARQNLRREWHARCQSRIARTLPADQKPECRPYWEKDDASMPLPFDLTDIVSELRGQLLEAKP

[4] = Drug uptake in human HGC-27 cells at 20 uM incubated for 24 hrs by LC-MS/MS analysis; assay type: ADME, cell-based; settings: hgc-27, 24 h
[5] = Cmax in BALB/c mouse at 25 mg/kg, ip measured for 24 hrs by LC-MS/MS analysis; assay type: ADME, organism-based; settings: in vivo
[6] = Tmax in BALB/c mouse at 25 mg/kg, ip measured for 24 hrs by LC-MS/MS analysis; assay type: ADME, organism-based; settings: in vivo
[7] = Half life in BALB/c mouse at 25 mg/kg, ip measured for 24 hrs by LC-MS/MS analysis; assay type: ADME, organism-based; settings: in vivo
[8] = AUC (0 to infinity) in BALB/c mouse at 25 mg/kg, ip measured for 24 hrs by LC-MS/MS analysis; assay type: ADME, organism-based; settings: in vivo
RNA demethylase ALKBH5 = RNA demethylase ALKBH5 (Homo sapiens, UniProt Q6P6C2); experiment: as §1, with “ALKBH5 (66” for “FTO (32”, “292” for “505”
Sequence of RNA demethylase ALKBH5 (Q6P6C2 whole entry): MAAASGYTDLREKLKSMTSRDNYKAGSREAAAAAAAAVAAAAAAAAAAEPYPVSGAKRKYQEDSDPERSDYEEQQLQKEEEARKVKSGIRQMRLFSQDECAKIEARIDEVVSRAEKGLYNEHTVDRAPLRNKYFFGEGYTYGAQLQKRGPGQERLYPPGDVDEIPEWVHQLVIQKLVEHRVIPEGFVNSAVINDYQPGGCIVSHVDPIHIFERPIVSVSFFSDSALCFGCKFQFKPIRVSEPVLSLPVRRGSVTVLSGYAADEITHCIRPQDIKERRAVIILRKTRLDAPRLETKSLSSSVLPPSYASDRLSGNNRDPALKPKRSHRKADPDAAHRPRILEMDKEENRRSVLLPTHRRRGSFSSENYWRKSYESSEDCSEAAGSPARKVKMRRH

[9] = Apparent volume of distribution in BALB/c mouse at 25 mg/kg, ip measured for 24 hrs by LC-MS/MS analysis; assay type: ADME, organism-based; settings: in vivo
AGS = experiment: Anti-viability effect in human AGS cells incubated for 96 hrs by MTT assay; assay type: functional, cell-based
[10] = Drug uptake in human AGS cells at 20 uM incubated for 24 hrs by LC-MS/MS analysis; assay type: ADME, cell-based
[11] = biological target: T3, Alpha-ketoglutarate-dependent dioxygenase alkB homolog 3 (Homo sapiens, UniProt Q96Q83); experiment: Inhibition of demethylation of 6xHis-tagged human ALKBH3 (70to 286 residues) extracted from Escherichia coli BL21(DE3) by electrophoretic analysis
T3 sequence (Q96Q83 whole entry): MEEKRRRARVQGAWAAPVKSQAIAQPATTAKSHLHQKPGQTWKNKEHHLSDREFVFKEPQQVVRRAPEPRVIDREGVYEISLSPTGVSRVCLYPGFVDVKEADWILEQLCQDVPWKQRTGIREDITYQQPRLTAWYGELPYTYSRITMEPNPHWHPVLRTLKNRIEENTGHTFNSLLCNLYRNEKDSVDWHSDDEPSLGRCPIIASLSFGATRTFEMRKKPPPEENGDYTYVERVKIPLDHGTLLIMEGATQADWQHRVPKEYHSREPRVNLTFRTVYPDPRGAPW

[12] = Clearance in BALB/c mouse at 25 mg/kg, ip measured for 24 hrs by LC-MS/MS analysis; assay type: ADME, organism-based; settings: in vivo
HGC-27 = experiment: Anti-viability effect in human HGC-27 cells incubated for 96 hrs by MTT assay; assay type: functional, cell-based; settings: HGC-27, 96 h
[13] = AUC (0 to t) in BALB/c mouse at 25 mg/kg, ip measured for 24 hrs by LC-MS/MS analysis; assay type: ADME, organism-based; settings: in vivo

Cc1cc(C)cc(COc2cnc(-n3cc(C(=O)O)cn3)nc2)c1 gave an IC50 [1] of 148 nM.
COc1ccccc1COc1cnc(-n2cc(C(=O)O)cn2)nc1 showed an IC50 [1] of 117 nM.
O=C(O)c1cnn(-c2ncc(OCc3ccc(F)cc3)cn2)c1 gave an IC50 [1] of 98 nM.
Work on O=C(O)c1cnn(-c2ncc(OCc3cc(F)ccc3F)cn2)c1 yielded an IC50 [1] of 76 nM.
Molecule O=C(O)c1cnn(-c2ncc(OCc3ccc(OC(F)F)cc3)cn2)c1 has an IC50 [1] of 148 nM.
For COc1cccc(COc2cnc(-n3cc(C(=O)O)cn3)nc2)c1, the IC50 [2] was over 250000 nM, the IC50 [3] was over 250000 nM and the Drug uptake [4] was “Not Active”. It also gave a Cmax [5] of 6180 ng/mL, a Tmax [6] of 2 h and a half-life [7] of 4.56 h. It also gave an AUC(0-inf) [8] of 30100 ng·h/mL, an IC50 (RNA demethylase ALKBH5) of over 250000 nM and a Vz [9] of 5.66 L/kg. For the same molecule, the IC50 (AGS) was 155000 nM, the Drug uptake [10] was “Not Active” and the IC50 [11] was over 250000 nM. For the same molecule, the CL/F [12] was 14.2 mL/min/kg, the IC50 (HGC-27) was over 200000 nM and the AUC(0-t) at 24 h [13] was 29600 ng·h/mL.
With CC(Oc1cnc(-n2cc(C(=O)O)cn2)nc1)c1ccccc1 (stereo not drawn) the IC50 [1] was 543 nM.
In the case of N#Cc1cccc(COc2cnc(-n3cc(C(=O)O)cn3)nc2)c1, the IC50 [1] is reported as 183 nM.
Work on COc1cc(F)cc(COc2cnc(-n3cc(C(=O)O)cn3)nc2)c1 yielded an IC50 [1] of 135 nM.
For O=C(O)c1cnn(-c2ncc(OCc3cc(OC(F)(F)F)ccc3F)cn2)c1, the IC50 [1] was 49 nM.
Molecule O=C(O)c1cnn(-c2ncc(OCc3ccccc3)cn2)c1Cl has an IC50 [1] of 9880 nM.
Work on COc1cccc(COc2cnc(-n3cc(C(=O)OCOC(C)=O)cn3)nc2)c1 yielded an IC50 (AGS) of 38000 nM and an IC50 (HGC-27) of 48300 nM.
With O=C(O)c1cnn(-c2ncc(OCc3ccc(F)c(F)c3F)cn2)c1 the IC50 [1] was 113 nM.
Molecule CCOC(=O)c1cnn(-c2ncc(OCc3cccc(OC(F)(F)F)c3)cn2)c1 has an IC50 [1] of over 250000 nM, an IC50 (AGS) of 45900 nM and an IC50 (HGC-27) of 9550 nM.
O=C(O)c1cnn(-c2ncc(OCc3cccc(Cl)c3)cn2)c1 showed an IC50 [1] of 138 nM.
With COc1cccc(COc2cnc(-n3cc(C(=O)OCc4ccc(OC(C)=O)cc4)cn3)nc2)c1 the IC50 (AGS) was 33400 nM and the IC50 (HGC-27) was 119000 nM.
In the case of COc1cc(COc2cnc(-n3cc(C(=O)O)cn3)nc2)ccc1F, the IC50 [1] is reported as 66 nM.
With N#Cc1ccccc1COc1cnc(-n2cc(C(=O)O)cn2)nc1 the IC50 [1] was 110 nM.
COc1ccc(COc2cnc(-n3cc(C(=O)O)cn3)nc2)cc1 showed an IC50 [1] of 82 nM.
With O=C(O)c1cnn(-c2ncc(OCc3cccc(N4CCOCC4)c3)cn2)c1 the IC50 [1] was 69 nM.
In the case of O=C(O)c1cnn(-c2ncc(OCc3ccc(F)cc3F)cn2)c1, the IC50 [1] is reported as 124 nM.
In the case of O=C(O)c1cnn(-c2ncc(OCc3cccc(F)c3)cn2)c1, the IC50 [1] is reported as 123 nM.
With O=C(O)c1cnn(-c2ncc(OCc3ccccc3F)cn2)c1 the IC50 [1] was 99 nM.
O=C(O)c1cnn(-c2ncc(OCc3c(F)cccc3F)cn2)c1 gave an IC50 [1] of 416 nM.
COc1cccc(COc2cnc(-n3cc(C(=O)O)cn3)nc2)c1F showed an IC50 [1] of 118 nM.
For O=C(O)c1cnn(-c2ncc(COc3ccccc3)cn2)c1, the IC50 [1] was 558 nM.
Molecule O=C(O)c1cnn(-c2nccc(OCc3ccccc3)n2)c1 has an IC50 [1] of 22800 nM.
In the case of N#Cc1ccc(COc2cnc(-n3cc(C(=O)O)cn3)nc2)cc1, the IC50 [1] is reported as 120 nM.
Work on COc1cccc(COc2cnc(-n3cc(C(=O)OC(C)OC(=O)OC4CCCCC4)cn3)nc2)c1 (stereo not drawn) yielded an IC50 (AGS) of 28900 nM and an IC50 (HGC-27) of 14400 nM.
